These results are taken from PMC12951562, “SH2scan: Mapping SH2 Domain-Ligand Binding Selectivity for Inhibitors and Degraders” (Journal of Medicinal Chemistry, 2026).

Like-named read-outs stand apart in the source and are kept apart here. Non-standard residues stand in square brackets, D forms with d. Residues, ends and D or L forms follow the SMILES beside them. *: point of attachment. pY = N[C@@H](Cc1ccc(OP(=O)(O)O)cc1)C(=O)O; Caffeoyl = O=C(/C=C/c1ccc(O)c(O)c1)*

Broadly, the Kd is a measure of binding affinity in units of concentration.

Common to all, as to assay: biochemical
Common to all, as to type: binding

One experiment addresses T1, STAT2 (Homo sapiens, UniProt P52630).
T1 construct: made in house; host or cells: HEK293 (transient transfection), unpurified extract
Conditions: for remaining activity at 10 µM: primary screen.

Another experiment deals with T2, HSH2D (Homo sapiens, UniProt Q96JZ2).
T2 construct: the DNA-tagged SH2 domain concentrations used in this study were <0.1 nM; made in house; host or cells: HEK293 (transient transfection, unpurified extract)
T2 sequence (Q96JZ2 34-125 limits assumed): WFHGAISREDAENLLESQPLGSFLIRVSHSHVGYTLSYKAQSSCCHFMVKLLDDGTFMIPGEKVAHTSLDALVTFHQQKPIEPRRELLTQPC
To be noted: for KD: dose-response; for remaining activity at 10 µM: primary screen.

A further experiment deals with T3, MATK (Homo sapiens, UniProt P42679).
T3 construct: the DNA-tagged SH2 domain concentrations used in this study were <0.1 nM; made in house; host or cells: HEK293 (transient transfection, unpurified extract)
T3 sequence (P42679 122-211 limits assumed): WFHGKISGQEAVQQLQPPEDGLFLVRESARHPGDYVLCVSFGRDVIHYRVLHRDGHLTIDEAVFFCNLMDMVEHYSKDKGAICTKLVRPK
To be noted: for remaining activity at 10 µM: primary screen.

For the next experiment, the target named is T4, ABL2 (Homo sapiens, UniProt P42684).
T4 construct: the DNA-tagged SH2 domain concentrations used in this study were <0.1 nM; made in house; host or cells: HEK293 (transient transfection; unpurified extract)
T4 sequence (P42684 173-263 limits assumed): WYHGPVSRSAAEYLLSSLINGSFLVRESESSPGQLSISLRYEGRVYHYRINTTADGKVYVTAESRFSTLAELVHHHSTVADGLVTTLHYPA
To be noted: for remaining activity at 10 µM: primary screen.

For the next experiment, the target named is T5, SHIP1 (Homo sapiens, UniProt Q92835).
T5 construct: made in house; host or cells: HEK293 (transient transfection), unpurified extract
T5 sequence (Q92835 1-1189): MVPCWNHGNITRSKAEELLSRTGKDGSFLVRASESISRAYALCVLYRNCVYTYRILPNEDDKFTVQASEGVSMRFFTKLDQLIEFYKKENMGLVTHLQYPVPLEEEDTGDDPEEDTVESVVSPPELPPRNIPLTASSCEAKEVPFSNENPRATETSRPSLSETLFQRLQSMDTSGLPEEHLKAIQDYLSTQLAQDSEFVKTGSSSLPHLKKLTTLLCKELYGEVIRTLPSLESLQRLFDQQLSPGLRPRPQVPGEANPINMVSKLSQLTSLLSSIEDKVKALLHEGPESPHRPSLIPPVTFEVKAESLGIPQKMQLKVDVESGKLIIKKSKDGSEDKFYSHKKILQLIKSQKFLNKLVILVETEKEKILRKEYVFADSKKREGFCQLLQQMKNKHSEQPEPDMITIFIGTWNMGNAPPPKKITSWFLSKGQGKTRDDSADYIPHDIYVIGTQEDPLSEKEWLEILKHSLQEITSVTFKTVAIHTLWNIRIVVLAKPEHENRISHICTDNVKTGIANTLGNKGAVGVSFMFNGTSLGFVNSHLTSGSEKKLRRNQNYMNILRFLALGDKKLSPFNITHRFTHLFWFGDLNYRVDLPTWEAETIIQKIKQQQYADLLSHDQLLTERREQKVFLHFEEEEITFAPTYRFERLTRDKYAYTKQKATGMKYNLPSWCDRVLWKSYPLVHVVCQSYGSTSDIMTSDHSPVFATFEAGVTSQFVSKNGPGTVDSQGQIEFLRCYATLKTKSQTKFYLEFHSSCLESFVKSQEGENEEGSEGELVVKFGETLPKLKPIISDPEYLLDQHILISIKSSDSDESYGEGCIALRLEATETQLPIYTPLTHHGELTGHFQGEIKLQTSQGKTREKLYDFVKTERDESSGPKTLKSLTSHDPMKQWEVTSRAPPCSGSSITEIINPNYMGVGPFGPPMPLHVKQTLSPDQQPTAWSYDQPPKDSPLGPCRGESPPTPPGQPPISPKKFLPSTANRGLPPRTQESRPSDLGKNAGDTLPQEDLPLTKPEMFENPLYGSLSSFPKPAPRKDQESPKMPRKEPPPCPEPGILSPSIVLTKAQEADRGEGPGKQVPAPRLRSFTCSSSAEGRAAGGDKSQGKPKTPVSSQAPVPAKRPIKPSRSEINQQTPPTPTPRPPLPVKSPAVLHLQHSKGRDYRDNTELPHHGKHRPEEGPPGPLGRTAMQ
Conditions: for percent of DMSO vehicle control: primary screen, 10 μM.

For a further experiment, the target named is T6, SOCS2 (Homo sapiens, UniProt O14508).
T6 construct: made in house; host or cells: HEK293 (transient transfection), unpurified extract
T6 sequence (O14508 1-198): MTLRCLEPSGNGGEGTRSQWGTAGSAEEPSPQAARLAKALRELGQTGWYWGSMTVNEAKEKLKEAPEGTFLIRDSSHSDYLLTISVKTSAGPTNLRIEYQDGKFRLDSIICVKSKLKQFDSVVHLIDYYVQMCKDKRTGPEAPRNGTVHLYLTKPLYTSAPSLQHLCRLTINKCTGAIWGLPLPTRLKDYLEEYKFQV
Conditions: for remaining activity at 10 µM: read-out: percent of DMSO vehicle control.

A further experiment concerns the target T7, SH2B (SH2B1) (Homo sapiens, UniProt Q9NRF2).
T7 construct: made in house; host or cells: HEK293 (transient transfection), unpurified extract
To be noted: for remaining activity at 10 µM: read-out: percent of DMSO vehicle control.

A further experiment deals with T8, PLCG2(SH2dom.N-term.) (Homo sapiens, UniProt P16885).
T8 construct: SH2dom.N-term. denotes SH2 domain closest to N-terminus of protein; made in house; host or cells: HEK293 (transient transfection, unpurified extract)
T8 sequence (P16885 532-635 limits assumed): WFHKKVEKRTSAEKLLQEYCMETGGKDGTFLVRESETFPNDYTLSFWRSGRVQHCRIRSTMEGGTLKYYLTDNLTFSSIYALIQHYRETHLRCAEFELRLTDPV
Conditions: for remaining activity at 10 µM: read-out: percent of DMSO vehicle control.

Another experiment addresses T9, YES (Homo sapiens, UniProt P07947).
T9 construct: the DNA-tagged SH2 domain concentrations used in this study were <0.1 nM; made in house; host or cells: HEK293 (transient transfection; unpurified cell extract)
Conditions: for remaining activity at 10 µM: read-out: percent of DMSO vehicle control.

A further experiment addresses T10, CSK (Homo sapiens, UniProt P41240).
T10 construct: the DNA-tagged SH2 domain concentrations used in this study were <0.1 nM; made in house; host or cells: HEK293 (transient transfection; unpurified extract)
T10 sequence (P41240 82-171 limits assumed): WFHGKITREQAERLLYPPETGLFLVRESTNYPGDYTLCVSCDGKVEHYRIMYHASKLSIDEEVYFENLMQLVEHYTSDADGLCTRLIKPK
Conditions: for percent of DMSO vehicle control: primary screen, 10 μM.

The next experiment deals with T11, PLCG2(SH2dom.C-term.) (Homo sapiens, UniProt P16885).
T11 construct: SH2dom.C-term. denotes SH2 domain closest to C-terminus of protein; made in house; host or cells: HEK293 (transient transfection, unpurified extract)
T11 sequence (P16885 646-735 limits assumed): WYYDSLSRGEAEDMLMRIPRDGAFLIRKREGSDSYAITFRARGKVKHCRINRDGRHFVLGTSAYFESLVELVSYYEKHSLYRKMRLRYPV
Conditions: for remaining activity at 10 µM: read-out: percent of DMSO vehicle control.

Setting [1] is: read-out: percent of DMSO vehicle control.

T9 sequence (P07947 158-255 limits assumed): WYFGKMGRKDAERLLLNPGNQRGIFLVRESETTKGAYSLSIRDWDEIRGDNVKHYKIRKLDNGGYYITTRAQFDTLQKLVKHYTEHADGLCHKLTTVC
T1 sequence (P52630 whole entry): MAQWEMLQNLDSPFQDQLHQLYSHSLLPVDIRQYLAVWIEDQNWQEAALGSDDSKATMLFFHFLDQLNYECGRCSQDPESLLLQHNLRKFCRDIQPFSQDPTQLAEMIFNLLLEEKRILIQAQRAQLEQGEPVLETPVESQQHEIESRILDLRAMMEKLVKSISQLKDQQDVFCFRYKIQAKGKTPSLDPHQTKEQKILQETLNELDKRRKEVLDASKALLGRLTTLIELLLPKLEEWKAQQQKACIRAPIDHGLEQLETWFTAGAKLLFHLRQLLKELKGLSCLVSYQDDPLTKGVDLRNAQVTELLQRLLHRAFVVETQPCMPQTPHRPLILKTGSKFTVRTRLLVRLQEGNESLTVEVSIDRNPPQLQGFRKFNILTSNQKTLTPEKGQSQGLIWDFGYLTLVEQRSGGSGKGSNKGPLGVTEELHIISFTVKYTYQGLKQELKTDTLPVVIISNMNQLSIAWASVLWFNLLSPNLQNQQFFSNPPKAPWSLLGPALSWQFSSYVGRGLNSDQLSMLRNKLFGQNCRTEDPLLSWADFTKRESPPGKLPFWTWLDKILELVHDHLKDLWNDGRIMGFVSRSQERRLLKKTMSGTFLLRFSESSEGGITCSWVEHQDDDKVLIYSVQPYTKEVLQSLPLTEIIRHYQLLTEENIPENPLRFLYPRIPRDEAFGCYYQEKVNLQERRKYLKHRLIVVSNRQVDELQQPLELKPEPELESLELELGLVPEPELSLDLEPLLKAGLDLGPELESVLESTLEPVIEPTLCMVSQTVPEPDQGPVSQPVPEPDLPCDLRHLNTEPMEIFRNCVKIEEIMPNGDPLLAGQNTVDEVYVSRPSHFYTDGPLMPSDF

Turning to `CC[C@H](C)[C@H](NC(=O)[C@H](CCC(=O)O)NC(=O)[C@H](CCC(=O)O)NC(=O)[C@H](Cc1ccc(OP(=O)(O)O)cc1)NC(=O)/C=C/c1ccc(O)c(O)c1)C(=O)N[C@@H](CCC(=O)O)C(=O)O` [Caffeic acid-pYEEIE] (Caffeoyl-[pY]EEIE-OH), the Kd worked out at 3.6 ± 0.18 nM at STAT2; 1400 ± 360 nM on ABL2; 5800 ± 1600 nM on SHIP1; 1300 ± 880 nM at SOCS2; 910 ± 310 nM at SH2B (SH2B1); 1070 ± 320 nM at PLCG2(SH2dom.N-term.). The results for the Kd at YES and at PLCG2(SH2dom.C-term.) were 1 ± 0.47 nM and 660 ± 700 nM, respectively. For the same compound, the percent of DMSO vehicle control at 10 µM on STAT2 (setting [1]) amounted to 0%; at HSH2D (setting [1]) it was 80.3 ± 18.6%; on MATK (setting [1]), 83.8 ± 3.5%; on ABL2 (setting [1]) it was 0.7 ± 0.4%. Further, the “percent of DMSO vehicle control” value at SHIP1 is recorded as 9.0±2.9%; at CSK, 103.0±4.8%. Further, the remaining activity at 10 µM at SOCS2 was 2.6 ± 0.1%; at SH2B (SH2B1), 2.3 ± 0.4%; at PLCG2(SH2dom.N-term.), 1.2 ± 0.1%; on YES it was 0%; on PLCG2(SH2dom.C-term.), 1.1 ± 0.1%.

`O=C(COc1ccc2cc(C(=O)Nc3ccccc3)ccc2c1)NCc1ccc(OP(=O)(O)O)c(OP(=O)(O)O)c1` [Stafib-1]: the Kd at STAT2 (dose-response, read-out: KD) worked out at 9300 ± 4300 nM. Further, the remaining activity at 10 µM at STAT2 (setting [1]) was determined as 153%; on HSH2D (setting [1]), 27.1%; on MATK (setting [1]) it was 59.9 ± 60.2%; on ABL2 (setting [1]), 106%; at SOCS2 (primary screen, 10 μM), 47.9 ± 29%; at SH2B (SH2B1) (primary screen, 10 μM) it was 92.7 ± 14.3%. Also, the remaining activity at 10 µM turned out to be 72.6 ± 27.2% on PLCG2(SH2dom.N-term.) (primary screen, 10 μM); 63.1 ± 24.3% at YES (primary screen, 10 μM); 80.4 ± 8.2% at PLCG2(SH2dom.C-term.) (primary screen, 10 μM). At HSH2D, the KD entry is reported as “No Hit”. Besides, the “percent of DMSO vehicle control” value on SHIP1 worked out at 61.1±7.3%; on CSK, 111.7±5.5%.

Consider `C/C(=C\C(=O)N[C@H](C(=O)N1CCC[C@H]1C(=O)N(c1ccccc1)c1ccc(I)cc1)C(C)(C)C)c1ccc(OP(=O)(O)O)cc1` [STAT6-IN-1], for which the remaining activity at 10 µM on STAT2 (setting [1]) is 35.1 ± 16.6%; at HSH2D (setting [1]), 14.6 ± 0.1%; at MATK (setting [1]) it was 6.5 ± 1.8%; at ABL2 (setting [1]), 98.1 ± 4.2%; at SOCS2 (primary screen, 10 μM) it was 0%; on SH2B (SH2B1) (primary screen, 10 μM) it was 22.6 ± 6.8%. In addition, the remaining activity at 10 µM at PLCG2(SH2dom.N-term.) (primary screen, 10 μM) came to 20.7 ± 29.3%; on YES (primary screen, 10 μM), 29.5%; at PLCG2(SH2dom.C-term.) (primary screen, 10 μM), 7.5 ± 0.6%. Moreover, the KD entry at HSH2D is “No Hit”. Moreover, the Kd at MATK (dose-response, read-out: KD) is 3000 ± 490 nM; at SHIP1 (dose-response, read-out: KD), 4400 ± 420 nM; on SOCS2 (dose-response, read-out: KD) it was 1500 ± 870 nM; on PLCG2(SH2dom.N-term.) (dose-response, read-out: KD) it was 550 ± 14 nM; on YES (dose-response, read-out: KD) it was 9200 ± 380 nM; on CSK (dose-response, read-out: KD), 3050 ± 490 nM. The Kd on PLCG2(SH2dom.C-term.) (dose-response, read-out: KD) turned out to be 3800 ± 500 nM. Moreover, the “percent of DMSO vehicle control” value at SHIP1 is on record as 4.4±1.3%; on CSK, 26.3±0.8%.
